{"source": "patent US7714009B2", "about": "“Nitrogen-containing fused heterocyclic compounds” (Takeda Pharmaceutical Company Limited, priority 2003, dated 2010)", "data": [{"molecular_target": "T1, human CRF receptor (Homo sapiens, UniProt P34998)", "T1 construct": "expressed in transfected cells; host or cells: CHO cells (membrane fraction)", "T1 sequence (P34998 24-415)": "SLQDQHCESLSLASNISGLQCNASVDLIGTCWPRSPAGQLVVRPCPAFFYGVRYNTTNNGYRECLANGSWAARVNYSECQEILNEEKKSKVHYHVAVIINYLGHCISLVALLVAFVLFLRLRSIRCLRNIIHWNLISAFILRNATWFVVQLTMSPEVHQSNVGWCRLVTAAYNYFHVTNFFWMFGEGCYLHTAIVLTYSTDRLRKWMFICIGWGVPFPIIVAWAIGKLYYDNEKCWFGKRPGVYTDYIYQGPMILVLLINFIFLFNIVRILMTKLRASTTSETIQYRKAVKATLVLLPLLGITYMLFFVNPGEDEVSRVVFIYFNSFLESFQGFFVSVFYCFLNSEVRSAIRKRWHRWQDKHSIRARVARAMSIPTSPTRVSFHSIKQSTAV", "assay": "Measurement of Corticotropin-Releasing Factor (CRF) Binding Inhibitory Rate", "conditions": "1000 nM test compound; human CRF receptor expressing CHO cellular membrane fraction; 50 pM 125I-CRF; room temperature 1 hour", "method": "Measurement of Corticotropin-Releasing Factor (CRF) Binding Inhibitory Rate\nA receptor binding experiment was carried out using a human CRF receptor expressing CHO cellular membrane fraction and sheep CRF, [^125I]-tyr^0(^125I-CRF). 1000 nM of a test compound was incubated with 1 μg of human CRF receptor expressing CHO cellular membrane fraction and 50 pM of ^125I-CRF in a binding assay buffer (50 mM Tris-HCl, 5 mM EDTA, 10 mM MgCl2, 0.05% CHAPS, 0.1% BSA, 0.5 mM PMSF, […] pepstatin, 20 μg/ml leupeptin, pH 7.5). In addition, for measuring nonspecific binding (NSB), 0.1 μM unlabelled human Urocortin was incubated with 1 μg of human CRF receptor expressing CHO cellular membrane fraction and 50 pM of ^125I-CRF in a binding assay buffer. After a binding reaction was carried out at room temperature for 1 hour, the membrane was entrapped on a glass filter (UniFilter plate GF-C/Perkin Elmer) by suction filtration using a cell harvester (Perkin Elmer), and washed with ice-cooled 50 mM Tris-HCl (pH 7.5). After drying the glass filter, a liquid scintillation cocktail (Microscinti 0, Perkin Elmer) was added, and the radioactivity of ^125I-CRF remaining on a glass filter was measured using Topcount (Perkin Elmer).\n(TB−SB)/(TB−NSB)×100 (SB: radioactivity when a compound is added, TB: maximum binding radioactivity, NSB: nonspecific binding radioactivity) was calculated to obtain a binding inhibitory rate under the presence of 1,000 nM or 100 nM of each test substances.", "units": {"inhibition at 1 µM": "%"}, "values": [{"smiles": "CCCN(CCC)c1cccc2nc(Nc3cc(OC)c(OC)cc3C)n(C)c12", "note": "[Example 46, N^2-(4,5-dimethoxy-2-methylphenyl)-1-methyl-N^7,N^7-dipropyl-1H-benzimidazole-2,7-diamine]", "inhibition at 1 µM": "> 80"}, {"smiles": "CCC1CCCCN1c1cccc2nc(Nc3c(C)cc(Br)cc3OC)n(C)c12", "note": "(centres unmarked) [Example 183, N-(4-Bromo-2-methoxy-6-methylphenyl)-7-(2-ethyl-1-piperidinyl)-1-methyl-1H-benzimidazol-2-amine]", "inhibition at 1 µM": "> 80"}, {"smiles": "CCCN(CCC)c1cccc2nc(Nc3c(C)cc(C)cc3Cl)n(C)c12", "note": "[Example 42, N^2-(2-chloro-4,6-dimethylphenyl)-1-methyl-N^7,N^7-dipropyl-1H-benzimidazole-2,7-diamine]", "inhibition at 1 µM": "> 80"}, {"smiles": "CCCN(CCC)c1cccc2nc(Nc3c(C)cc(C)cc3C)n(C)c12", "note": "[Example 26, N^2-Mesityl-1-methyl-N^7,N^7-dipropyl-1H-benzimidazole-2,7-diamine]", "inhibition at 1 µM": "> 80"}, {"smiles": "COc1ccc(N(c2cccc3nc(Nc4c(C)cc(Cl)cc4OC)n(C)c23)C(C)C)cc1", "note": "[Example 145, N^2-(4-chloro-2-methoxy-6-methylphenyl)-N^7-isopropyl-N^7-(4-methoxyphenyl)-1-methyl-1H-benzimidazole-2,7-diamine]", "inhibition at 1 µM": "> 80"}]}]}
